Experimental data reported in patent US11111237B2, “Bicyclic compound and use thereof” (SK BIOPHARMACEUTICALS CO., LTD., priority 2019, dated 2021).

Target: PRMT5-MEP50 enzyme complex (Homo sapiens (Human), UniProt O14744)
Experiment: PRMT5 enzyme activity in vitro assay (methylation of histone H4R3, ELISA absorbance at 450 nm)
Type: biochemical
Details: SAM, histone H4 peptide, room temperature 2 hours, 8 points from 10 μM to 0.128 nM
How it was run: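 IC50 was derived from ELISA absorbance at 450 nm, using primary and HRP antibodies against H4R3 methylation on immobilised histone H4 peptide (residues 1-20). Compounds (10 μM to 0.128 nM, 8 points, 1:5) were incubated 2 h at room temperature with the PRMT5-MEP50 complex and SAM, diluted to 5 μg/mL and 2 μM respectively.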

Chain of PRMT5-MEP50 enzyme complex (O14744 2-637): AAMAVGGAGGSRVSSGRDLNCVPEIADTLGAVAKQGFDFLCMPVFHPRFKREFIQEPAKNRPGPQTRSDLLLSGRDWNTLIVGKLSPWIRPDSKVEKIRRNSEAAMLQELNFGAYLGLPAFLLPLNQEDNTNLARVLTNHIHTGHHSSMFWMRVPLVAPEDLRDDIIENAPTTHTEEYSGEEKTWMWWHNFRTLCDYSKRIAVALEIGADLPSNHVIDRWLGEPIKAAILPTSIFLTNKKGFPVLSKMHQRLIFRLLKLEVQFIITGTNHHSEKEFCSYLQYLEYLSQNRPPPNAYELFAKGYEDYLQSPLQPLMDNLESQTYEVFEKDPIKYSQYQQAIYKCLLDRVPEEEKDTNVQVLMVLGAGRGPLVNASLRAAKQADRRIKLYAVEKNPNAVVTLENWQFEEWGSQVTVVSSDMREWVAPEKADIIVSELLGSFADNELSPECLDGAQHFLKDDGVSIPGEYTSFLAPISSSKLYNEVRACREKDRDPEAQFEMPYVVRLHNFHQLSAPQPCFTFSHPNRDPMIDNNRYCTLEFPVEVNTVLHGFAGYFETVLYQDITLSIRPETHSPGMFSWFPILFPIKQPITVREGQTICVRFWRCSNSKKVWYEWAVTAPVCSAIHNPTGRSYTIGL
Chain of PRMT5-MEP50 enzyme complex (Q9BQA1 2-342 partner): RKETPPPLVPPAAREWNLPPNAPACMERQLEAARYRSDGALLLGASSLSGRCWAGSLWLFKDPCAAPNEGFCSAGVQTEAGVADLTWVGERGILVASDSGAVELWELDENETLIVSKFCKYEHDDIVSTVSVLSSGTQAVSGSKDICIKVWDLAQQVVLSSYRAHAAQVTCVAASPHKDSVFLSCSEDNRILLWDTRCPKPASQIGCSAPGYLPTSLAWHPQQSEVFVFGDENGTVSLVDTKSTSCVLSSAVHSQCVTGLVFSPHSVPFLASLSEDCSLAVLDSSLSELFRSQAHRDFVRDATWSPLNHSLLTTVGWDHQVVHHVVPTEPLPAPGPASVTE

Structure (SMILES) | IC50
O=C1c2ccc(OC3CCN(CCO)CC3)cc2OCCN1C[C@H](O)CN1CCc2ccccc2C1 [Example 162, 4-[(2R)-3-(3,4-dihydro-1H-isoquinolin-2-yl)-2-hydroxy-propyl]-8-[[1-(2-hydroxyethyl)-4-piperidyl]oxy]-2,3-dihydro-1,4-benzoxazepin-5-one] | 100 to 1000 nM
O=C1c2ccc(OC3CCN(CCF)CC3)cc2OCCN1C[C@H](O)CN1CCc2ccccc2C1 [Example 163, 4-[(2R)-3-(3,4-dihydro-1H-isoquinolin-2-yl)-2-hydroxy-propyl]-8-[[1-(2-fluoroethyl)-4-piperidyl]oxy]-2,3-dihydro-1,4-benzoxazepin-5-one] | 100 to 1000 nM
O=C1c2ccc(OC3CCN(CCF)CC3)nc2OCCN1C[C@H](O)CN1CCc2ccccc2C1 [Example 164, 4-[(2R)-3-(3,4-dihydro-1H-isoquinolin-2-yl)-2-hydroxy-propyl]-8-[[1-(2-fluoroethyl)-4-piperidyl]oxy]-2,3-di hydropyrido[3,2-f][1,4]oxazepin-5-one] | 100 to 1000 nM
N#CN1CCC(Oc2ccc3c(c2)OCCN(C[C@H](O)CN2CCc4ccccc4C2)C3=O)CC1 [Example 166, 4-[[4-[(2R)-3-(3,4-dihydro-1H-isoquinolin-2-yl)-2-hydroxypropyl]-5-oxo-2,3-dihydro-1,4-benzoazepin-8-yl]oxy]piperidine-1-carbonitrile] | 100 to 1000 nM
CC(=O)N1CCN(Cc2ccc3c(c2)OC(C)(C)CN(C[C@H](O)CN2CCc4ccccc4C2)C3=O)CC1 [Example 167, 8-[(4-acetylpiperazin-1-yl)methyl]-4-[(2R)-3-(3,4-dihydro-1H-isoquinolin-2-yl)-2-hydroxy-propyl]-2,2-dimethyl-3H-1,4-benzoxazepin-5-one] | 100 to 1000 nM
CC1(C)CN(C[C@H](O)CN2CCc3ccccc3C2)C(=O)c2ccc(CN3CCN(C=O)CC3)cc2O1 [Example 169, 4-[[4-[(2R)-3-(3,4-dihydro-1H-isoquinolin-2-yl)-2-hydroxy-propyl]-2,2-dimethyl-5-oxo-3H-1,4-benzoxazepin-8-yl]methyl]piperazine-1-carbaldehyde] | 100 to 1000 nM
CC1(C)CN(C[C@H](O)CN2CCc3ccccc3C2)C(=O)c2ccc(CN3CC4(COC4)C3)cc2O1 [Example 170, 4-[(2R)-3-(3,4-dihydro-1H-isoquinolin-2-yl)-2-hydroxy-propyl]-2,2-dimethyl-8-(2-oxa-6-azaspiro[3.3]heptan-6-ylmethyl)-3H-1,4-benzoxazepin-5-one] | 100 to 1000 nM
CCN1C2CCC1CC(Oc1ccc3c(c1)OCCN(C[C@H](O)CN1CCc4ccccc4C1)C3=O)C2 (stereo partly drawn) [Example 171, 4-[(2R)-3-(3,4-dihydro-1H-isoquinolin-2-yl)-2-hydroxy-propyl]-8-[(8-ethyl-8-azabicyclo[3.2.1]octan-3-yl)oxy]-2,3-dihydro-1,4-benzoxazepin-5-one] | 1 to 100 nM

Continued, values first:

IC50 | Structure (SMILES)
1 to 100 nM | O=C1c2ccc(OC3CCN(C(=O)C(F)F)CC3)cc2OCCN1C[C@H](O)CN1CCc2ccccc2C1 [Example 160, 8-[[1-(2,2-difluoroacetyl)-4-piperidyl]oxy]-4-[(2R)-3-(3,4-dihydro-1H-isoquinolin-2-yl)-2-hydroxy-propyl]-2,3-dihydro-1,4-benzoxazepin-5-one]
1 to 100 nM | O=C1c2ccc(OC3CN(C(=O)C(F)F)C3)cc2OCCN1C[C@H](O)CN1CCc2ccccc2C1 [Example 161]
1 to 100 nM | CC1(CN2CCC(Oc3ccc4c(c3)OCCN(C[C@H](O)CN3CCc5ccccc5C3)C4=O)CC2)COC1 [Example 165, 4-[(2R)-3-(3,4-dihydro-1H-isoquinolin-2-yl)-2-hydroxypropyl]-8-[[1-[(3-methyloxetan-3-yl)methyl]-4-piperidyl]oxy]-2,3-dihydro-1,4-benzoxazepin-5-one]
1 to 100 nM | CC1(C)CN(C[C@H](O)CN2CCc3ccccc3C2)C(=O)c2ccc(OC3CN(C=O)C3)cc2O1 [Example 168, 3-[[4-[(2R)-3-(3,4-dihydro-1H-isoquinolin-2-yl)-2-hydroxy-propyl]-2,2-dimethyl-5-oxo-3H-1,4-benzoxazepin-8-yl]oxy]azetidin-1-carbaldehyde]
